Molecular target: T1, hROMK (hKir1.1) (Homo sapiens, UniProt P48048)
T1 construct: expressed in transfected cells
T1 sequence (P48048 1-391): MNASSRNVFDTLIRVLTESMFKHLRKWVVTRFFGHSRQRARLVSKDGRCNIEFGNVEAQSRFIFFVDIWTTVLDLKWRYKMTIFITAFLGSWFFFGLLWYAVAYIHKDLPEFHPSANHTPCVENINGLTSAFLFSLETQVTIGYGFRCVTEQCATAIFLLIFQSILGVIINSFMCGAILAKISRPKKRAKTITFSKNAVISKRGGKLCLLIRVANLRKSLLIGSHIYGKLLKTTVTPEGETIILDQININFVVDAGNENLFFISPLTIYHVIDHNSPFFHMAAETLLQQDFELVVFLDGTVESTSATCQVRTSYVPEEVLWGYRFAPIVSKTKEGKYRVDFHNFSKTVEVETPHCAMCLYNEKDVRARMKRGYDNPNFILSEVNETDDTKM
Experiment: Thallium Flux Assay (ROMK channel functional thallium flux, FLIPR-Tetra)
Format: cell-based
Details: HEK293 cells stably expressing hROMK (hKir1.1); 30 min compound incubation
In short: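 HEK293 cells stably expressing hKir1.1, loaded with FluxOR dye for 90 min, then preincubated with compound for 30 min at ambient temperature with 0.3 mM ouabain and probenecid. Stimulated with 3 mM thallium/0.3 mM potassium (final); fluorescence read ~10 min. Normalized to 3 μM reference ROMK inhibitor; IC50 from inhibition of flux.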

| IC50 [nM] | Structure (SMILES) |
| --- | --- |
| 10 | O=C1C=C(N2CCC3(CCN(C[C@H](O)c4ccc(-n5cnnn5)nc4)CC3)C2=O)CO1 [Example 1, 8-{(2R)-2-Hydroxy-2-[6-(1H-tetrazol-1-yl)pyridin-3-yl]ethyl}-1-oxo-2-(5-oxo-2,5-dihydrofuran-3-yl)-2-aza-8-azoniaspiro[4.5]decane] |
| 20 | Cc1nc(-n2cnnn2)ccc1[C@@H](O)CN1CCC2(CC1)CCN(C1=CC(=O)OC1)C2=O [Example 3, 8-{(2R)-2-hydroxy-2-[2-methyl-6-(1H-tetrazol-1-yl)pyridin-3-yl]ethyl}-1-oxo-2-(5-oxo-2,5-dihydrofuran-3-yl)-2-aza-8-azoniaspiro[4.5]decane] |
| 50 | Cc1nc(-n2cnnn2)ccc1[C@H](O)CN1CCC2(CC1)CCN(C1=CC(=O)OC1)C2=O [Example 4, 8-{(2S)-2-hydroxy-2-[2-methyl-6-(1H-tetrazol-1-yl)pyridin-3-yl]ethyl}-1-oxo-2-(5-oxo-2,5-dihydrofuran-3-yl)-2-aza-8-azoniaspiro[4.5]decane] |
| 40 | Cc1nc([C@@H](O)CN2CCC3(CC2)CCN(C2=CC(=O)OC2)C3=O)ccc1-n1cnnn1 [Example 5, 8-{(2S)-2-hydroxy-2-[6-methyl-5-(1H-tetrazol-1-yl)pyridin-2-yl]ethyl}-1-oxo-2-(5-oxo-2,5-dihydrofuran-3-yl)-2-aza-8-azoniaspiro[4.5]decane] |
| 50 | Cc1cc([C@H](O)CN2CCC3(CC2)CCN(C2=CC(=O)OC2)C3=O)ncc1-n1cnnn1 [Example 6, 8-{(2R)-2-hydroxy-2-[4-methyl-5-(1H-tetrazol-1-yl)pyridin-2-yl]ethyl}-1-oxo-2-(5-oxo-2,5-dihydrofuran-3-yl)-2-aza-8-azoniaspiro[4.5]decane] |
| 80 | Cc1cc([C@@H](O)CN2CCC3(CC2)CCN(C2=CC(=O)OC2)C3=O)ncc1-n1cnnn1 [Example 7, 8-{(2S)-2-hydroxy-2-[4-methyl-5-(1H-tetrazol-1-yl)pyridin-2-yl]ethyl}-1-oxo-2-(5-oxo-2,5-dihydrofuran-3-yl)-2-aza-8-azoniaspiro[4.5]decane] |
| 60 | Cc1nc([C@H](O)CN2CCC3(CC2)CCN(C2=CC(=O)OC2)C3=O)ccc1-n1cnnn1 [Example 8, 8-{(2R)-2-hydroxy-2-[6-methyl-5-(1H-tetrazol-1-yl)pyridin-2-yl]ethyl}-1-oxo-2-(5-oxo-2,5-dihydrofuran-3-yl)-2-aza-8-azoniaspiro[4.5]decane] |
| 80 | O=C1C=C(N2CCC3(CCN(C[C@H](O)c4cnc(-n5cnnn5)nc4)CC3)C2=O)CO1 [Example 9, 8-{(2R)-2-hydroxy-2-[2-(1H-tetrazol-1-yl)pyrimidin-5-yl]ethyl}-1-oxo-2-(5-oxo-2,5-dihydrofuran-3-yl)-2-aza-8-azoniaspiro[4.5]decane] |
| 20 | Cc1cc(-n2cnnn2)ccc1[C@@H](O)CN1CCC2(CC1)CCN(C1=CC(=O)OC1)C2=O [Example 11, 8-{(2R)-2-hydroxy-2-[2-methyl-4-(1H-tetrazol-1-yl)phenyl]ethyl}-1-oxo-2-(5-oxo-2,5-dihydrofuran-3-yl)-2-aza-8-azoniaspiro[4.5]decane] |
| 10 | Cc1cc(-n2cnnn2)ccc1[C@H](O)CN1CCC2(CC1)CCN(C1=CC(=O)OC1)C2=O [Example 12, 8-{(2S)-2-hydroxy-2-[2-methyl-4-(1H-tetrazol-1-yl)phenyl]ethyl}-1-oxo-2-(5-oxo-2,5-dihydrofuran-3-yl)-2-aza-8-azoniaspiro[4.5]decane] |
| 20 | O=C1C=C(N2CCC3(CCN(C[C@H](O)c4ccc(-n5cnnn5)cc4F)CC3)C2=O)CO1 [Example 13, 8-{(2R)-2-[2-fluoro-4-(1H-tetrazol-1-yl)phenyl]-2-hydroxyethyl}-1-oxo-2-(5-oxo-2,5-dihydrofuran-3-yl)-2-aza-8-azoniaspiro[4.5]decane] |
| 20 | O=C1C=C(N2CCC3(CCN(C[C@@H](O)c4ccc(-n5cnnn5)cc4F)CC3)C2=O)CO1 [Example 14, 8-{(2S)-2-[2-fluoro-4-(1H-tetrazol-1-yl)phenyl]-2-hydroxyethyl}-1-oxo-2-(5-oxo-2,5-dihydrofuran-3-yl)-2-aza-8-azoniaspiro[4.5]decane] |
| 10 | COc1cc(-n2cnnn2)ccc1[C@@H](O)CN1CCC2(CC1)CCN(C1=CC(=O)OC1)C2=O [Example 15, 8-{(2R)-2-hydroxy-2-[2-methoxy-4-(1H-tetrazol-1-yl)phenyl]ethyl}-1-oxo-2-(5-oxo-2,5-dihydrofuran-3-yl)-2-aza-8-azoniaspiro[4.5]decane] |
| 20 | COc1cc(-n2cnnn2)ccc1[C@H](O)CN1CCC2(CC1)CCN(C1=CC(=O)OC1)C2=O [Example 16, 8-{(2S)-2-hydroxy-2-[2-methoxy-4-(1H-tetrazol-1-yl)phenyl]ethyl}-1-oxo-2-(5-oxo-2,5-dihydrofuran-3-yl)-2-aza-8-azoniaspiro[4.5]decane] |
| 30 | CC1=C(N2CCC3(CCN(C[C@H](O)c4cnc(-n5cnnn5)nc4)CC3)C2=O)COC1=O [Example 17, 8-{(2R)-2-hydroxy-2-[2-(1H-tetrazol-1-yl)pyrimidin-5-yl]ethyl}-2-(4-methyl-5-oxo-2,5-dihydrofuran-3-yl)-1-oxo-2-aza-8-azoniaspiro[4.5]decane] |
| 10 | CC1=C(N2CCC3(CCN(C[C@H](O)c4ccc(-n5cnnn5)nc4)CC3)C2=O)COC1=O [Example 18, 8-{(2R)-2-hydroxy-2-[6-(1H-tetrazol-1-yl)pyridin-3-yl]ethyl}-2-(4-methyl-5-oxo-2,5-dihydrofuran-3-yl)-1-oxo-2-aza-8-azoniaspiro[4.5]decane] |
| 30 | CC1=C(N2CCC3(CCN(C[C@@H](O)c4ccc(-n5cnnn5)nc4)CC3)C2=O)COC1=O [Example 19, 8-{(2S)-2-hydroxy-2-[6-(1H-tetrazol-1-yl)pyridin-3-yl]ethyl}-2-(4-methyl-5-oxo-2,5-dihydrofuran-3-yl)-1-oxo-2-aza-8-azoniaspiro[4.5]decane] |
| 30 | CC1=C(N2CCC3(CCN(C[C@H](O)c4ccc(-n5cnnn5)nc4C)CC3)C2=O)COC1=O [Example 20, 8-{(2R)-2-hydroxy-2-[2-methyl-6-(1H-tetrazol-1-yl)pyridin-3-yl]ethyl}-2-(4-methyl-5-oxo-2,5-dihydrofuran-3-yl)-1-oxo-2-aza-8-azoniaspiro[4.5]decane] |
| 40 | CC1=C(N2CCC3(CCN(C[C@@H](O)c4ccc(-n5cnnn5)nc4C)CC3)C2=O)COC1=O [Example 21, 8-{(2S)-2-hydroxy-2-[2-methyl-6-(1H-tetrazol-1-yl)pyridin-3-yl]ethyl}-2-(4-methyl-5-oxo-2,5-dihydrofuran-3-yl)-1-oxo-2-aza-8-azoniaspiro[4.5]decane] |
| 10 | CC1=C(N2CCC3(CCN(C[C@H](O)c4ccc(-n5cnnn5)cn4)CC3)C2=O)COC1=O [Example 22, 8-{(2S)-2-hydroxy-2-[5-(1H-tetrazol-1-yl)pyridin-2-yl]ethyl}-2-(4-methyl-5-oxo-2,5-dihydrofuran-3-yl)-1-oxo-2-aza-8-azoniaspiro[4.5]decane] |
| 20 | CC1=C(N2CCC3(CCN(C[C@@H](O)c4ccc(-n5cnnn5)cn4)CC3)C2=O)COC1=O [Example 23, 8-{(2R)-2-hydroxy-2-[5-(1H-tetrazol-1-yl)pyridin-2-yl]ethyl}-2-(4-methyl-5-oxo-2,5-dihydrofuran-3-yl)-1-oxo-2-aza-8-azoniaspiro[4.5]decane] |
| 20 | CC1=C(N2CCC3(CCN(C[C@H](O)c4cnc(-n5cnnn5)cn4)CC3)C2=O)COC1=O [Example 24, 8-{(2S)-2-hydroxy-2-[5-(1H-tetrazol-1-yl)pyrazin-2-yl]ethyl}-2-(4-methyl-5-oxo-2,5-dihydrofuran-3-yl)-1-oxo-2-aza-8-azoniaspiro[4.5]decane] |
| 30 | CC1=C(N2CCC3(CCN(C[C@@H](O)c4cnc(-n5cnnn5)cn4)CC3)C2=O)COC1=O [Example 25, 8-{(2R)-2-hydroxy-2-[5-(1H-tetrazol-1-yl)pyrazin-2-yl]ethyl}-2-(4-methyl-5-oxo-2,5-dihydrofuran-3-yl)-1-oxo-2-aza-8-azoniaspiro[4.5]decane] |
| 40 | CC1=C(N2CCC3(CCN(C[C@H](O)c4cnc(-n5cnnn5)c(F)c4)CC3)C2=O)COC1=O [Example 26, 8-{(2R)-2-[5-fluoro-6-(1H-tetrazol-1-yl)pyridin-3-yl]-2-hydroxyethyl}-2-(4-methyl-5-oxo-2,5-dihydrofuran-3-yl)-1-oxo-2-aza-8-azoniaspiro[4.5]decane] |
| 20 | CC1=C(N2CCC3(CCN(C[C@@H](O)c4cnc(-n5cnnn5)c(F)c4)CC3)C2=O)COC1=O [Example 27, 8-{(2S)-2-[5-fluoro-6-(1H-tetrazol-1-yl)pyridin-3-yl]-2-hydroxyethyl}-2-(4-methyl-5-oxo-2,5-dihydrofuran-3-yl)-1-oxo-2-aza-8-azoniaspiro[4.5]decane] |
| 30 | CC1=C(N2CCC3(CCN(C[C@H](O)c4ncc(-n5cnnn5)cc4C)CC3)C2=O)COC1=O [Example 28, 8-{(2S)-2-hydroxy-2-[3-methyl-5-(1H-tetrazol-1-yl)pyridin-2-yl]ethyl}-2-(4-methyl-5-oxo-2,5-dihydrofuran-3-yl)-1-oxo-2-aza-8-azoniaspiro[4.5]decane] |
| 40 | CC1=C(N2CCC3(CCN(C[C@@H](O)c4ncc(-n5cnnn5)cc4C)CC3)C2=O)COC1=O [Example 29, 8-{(2R)-2-hydroxy-2-[3-methyl-5-(1H-tetrazol-1-yl)pyridin-2-yl]ethyl}-2-(4-methyl-5-oxo-2,5-dihydrofuran-3-yl)-1-oxo-2-aza-8-azoniaspiro[4.5]decane] |

— patent publication US9765074B2, “Inhibitors of the renal outer medullary potassium channel” (Merck Sharp & Dohme Corp., priority 2013, dated 2017)
